# Patent publication US8148392B2, “2-indolyl imidazo [4,5-d] phenanthroline derivatives and their use in the treatment of cancer” (Lorus Therapeutics Inc., priority 2005, dated 2012)
# “Also recorded” adds a separate entry of the source.
# How the values were obtained:
# [1] = system: MDA-MB-231 breast cancer cells; assay: XTT cell proliferation assay, MDA-MB-231; type: cell-based, human; conditions: Homo sapiens, read-out: IC50 (cell growth inhibition)
# Experimental: Cell growth inhibition IC50 (μM) by compounds of Formula I was tested on various cancer cell types by XTT cell proliferation assay. The growth inhibitory effects of the compounds of Formula I as shown below for the melanoma cell line SK-MEL-2 were reproducible by Lorus Therapeutics Inc.
# HT-29 cells = assay: Cell cycle analysis by flow cytometry, HT-29; type: cell-based, human; conditions: HT-29, 24 hours
# Experimental: To test the ability of compounds of Formula I to block cell cycle progression, compound 3 was incubated with human colon carcinoma HT-29 or human leukemia CCRF-CEM cells to determine alterations in populations of cells at different stages of the cell cycle using flow cytometric analysis. HT-29 cells were maintained as described in Example 13. CCRF-CEM cells used in this example and subsequent examples were maintained as suspension cells in a growth medium; RPMI-1640 medium (Sigma, St. Louis, Mo.), supplemented with 2 mM L-glutamine (Gibco, Grand Island, N.Y.), 10% fetal bovine serum (FBS) (Multicell, WISENT Inc. St-Bruno, QC), antibiotic-antimycotic (Multicell), at 37° C. in a 5% CO2-humidified incubator.
# The assay was carried out as follows. For HT-29 cells, 1×10^6 cells in 10 mL volume of the growth medium were seeded in 100 mm dishes. For CCRF-CEM cells, 3×10^6 cells in 10 mL volume of the growth medium were seeded in 25 cm^2 flask. […] The fluorescence of stained cells was analyzed using FACScan flow cytometer and the Cell Quest program (BD Biosciences, San Jose, Calif.). Data were evaluated using Modfit software (Verity software House, Topsham, Me.). Values were determined by gate analysis of flow cytometric plots. […]
# Cell cycle analysis was assessed by flow cytometry in HT-29 cells treated with compound 3 as shown in FIG. 27A and compound 7 as shown in FIG. 27B.
# [2] = PAR metal binding assay, iron; type: physicochemical; conditions: 200 μM compound
# Experimental: (§1) Results are shown in FIGS. 28A (ZnCl2), 28B (CuCl2) and 28C (FeCl2). In vitro 4-(2-pyridylazo) resorcinol (PAR) zinc binding assay was performed as follows. In triplicate wells of 96-well plate (Sarstedt, Newton, N.C.), 10 μL volume of indicated final concentrations of ZnCl2 in 0.2M Tris-HCl, pH 7.5 was incubated with 10 μL of 80% acetonitrile-20% DMSO vehicle control or indicated final concentrations of the compounds of Formula I, dissolved in 80% acetonitrile-20% DMSO, for 15 min at room temperature. Then, 80 μL of PAR at final concentration of 200 μM in 0.2M Tris-HCl, pH 7.5 was added and the color development of PAR-Zn^2+ complex was measured by a multi-well spectrophotometer (Bio-Tek Instruments Inc.) at 500 nm.
# (§2) Metal chelation property of compound 64 and the relative affinity on different metal ions were evaluated and compared with the effect of compound 3 in vitro using 4-(2-pyridylazo) resorcinol (PAR) colorimetric zinc assay utilizing methodology as described above in the preceding Examples. Indicated final concentrations of ZnCl2 (FIG. 56A), CuCl2 (FIG. 56B) or FeCl2 (FIG. 56C) were incubated with 80% acetonitrile-20% DMSO vehicle control or 200 μM of the compounds of Formula I. The color development of PAR-metal ion complex was measured by a multi-well spectrophotometer at 500 nm.
# [3] = PAR metal binding assay, copper; type: physicochemical; conditions: pH 7.5, 200 μM PAR
# Experimental: as §1, §2
# [4] = PAR metal binding assay, zinc; type: physicochemical; conditions: pH 7.5, 200 μM PAR
# Experimental: as §1, §2
Structure (SMILES),IC50 [1],cell cycle progression (HT-29 cells),color development of PAR-Fe2+ [2],Cu+2 binding to PAR (PAR-Cu2+ absorbance at 500 nm) [3],Zn binding to PAR (PAR-Zn2+ absorbance at 500 nm) [4]
Cc1[nH]c2ccc(F)cc2c1-c1nc2c3cccnc3c3ncccc3c2[nH]1 [Compound 7],5 µM,Cell cycle arrest at G1/S phase was observed,–,–,–
CCc1cccc2c(-c3nc4c5cccnc5c5ncccc5c4[nH]3)c(C(C)(C)C)[nH]c12 [Compound 64],–,–,minimally affected,eliminated,eliminated
Cc1[nH]c2ccccc2c1-c1nc2c3cccnc3c3ncccc3c2[nH]1 [Compound 3],5 µM,induced a block in cell cycle progression at the G1 phase; also recorded: Cell cycle arrest at G1/S phase was observed,minimally affected,attenuated; also recorded: eliminated,attenuated; also recorded: eliminated
